Counter-ions that a name gives are not always drawn. Like-named read-outs stand apart in the source and are kept apart here.

Assay [1] has as its system JAK1-dependent STAT6 phosphorylation downstream of IL-13 stimulation in BEAS-2B human bronchial epithelial cells. As to the kind of experiment: JAK1 pathway assay in BEAS-2B cells (IL-13-pSTAT6, MSD). It counts as cell-based. As to conditions: read-out: IL13-pSTAT6 EC50 (uM)_BEAS-2B. The procedure:
JAK1 Pathway Assay in Cell Lines was Carried Out as Follows:
Inhibitor potency (EC50) was determined in cell-based assays designed to measure JAK1 dependent STAT phosphorylation.
In one assay approach, TF-1 human erythroleukemia cells obtained from the American Type Culture Collection (ATCC; Manassas, Va.) were used to measure JAK1-dependent STAT6 phosphorylation downstream of IL-13 stimulation. Prior to use in the assays, TF-1 cells were starved of GM-CSF overnight in OptiMEM medium (Life Technologies, Grand Island, N.Y.) supplemented with 0.5% charcoal/dextran stripped fetal bovine serum (FBS), 0.1 mM non-essential amino acids (NEAA), and 1 mM sodium pyruvate. The assays were run in 384-well plates in serum-free OptiMEM medium using 300,000 cells per well. In a second assay approach, BEAS-2B human bronchial epithelial cells obtained from ATCC were plated at 100,000 cells per well of a 96-well plate one day prior to the experiment. The BEAS-2B assay was run in complete growth medium (bronchial epithelial basal medium plus bulletkit; Lonza; Basel, Switzerland).
Test compounds were serially diluted 1:2 in DMSO and then diluted 1:50 in medium just before use. Diluted compounds were added to the cells, for a final DMSO concentration of 0.2%, and incubated for 30 min (for the TF-1 assay) or 1 hr (for the BEAS-2B assay) at 37° C. Then, cells were stimulated with human recombinant cytokine at their respective EC90 concentrations, as previously determined for each individual lot. Cells were stimulated with IL-13 (R&D Systems, Minneapolis, Minn.) for 15 min at 37° C. The TF-1 cell reactions were stopped by the direct addition of 10× lysis buffer (Cell Signaling Technologies, Danvers, Mass.), whereas the BEAS-2B cell incubations were halted by the removal of medium and addition of 1× lysis buffer. The resultant samples were frozen in the plates at −80° C. Compound mediated inhibition of STAT6 phosphorylation was measured in the cell lysates using MesoScale Discovery (MSD) technology (Gaithersburg, Md.).

Assay [2] addresses isolated recombinant JAK2 kinase domain (Homo sapiens (Human), UniProt O60674). As to the kind of experiment: JAK2 enzyme assay (Caliper LabChip, peptide phosphorylation). As to conditions: 25 μM ATP. Format: biochemical.
Assay [3] has as its target isolated recombinant JAK1 kinase domain (Homo sapiens (Human), UniProt P23458). Nature of the assay: JAK1 enzyme assay (Caliper LabChip, peptide phosphorylation). It counts as biochemical.
The mark [4] stands for this setting: isolated recombinant JAK1 kinase domain, 25 μM ATP.

Sequence of isolated recombinant JAK1 kinase domain (P23458 875-1153): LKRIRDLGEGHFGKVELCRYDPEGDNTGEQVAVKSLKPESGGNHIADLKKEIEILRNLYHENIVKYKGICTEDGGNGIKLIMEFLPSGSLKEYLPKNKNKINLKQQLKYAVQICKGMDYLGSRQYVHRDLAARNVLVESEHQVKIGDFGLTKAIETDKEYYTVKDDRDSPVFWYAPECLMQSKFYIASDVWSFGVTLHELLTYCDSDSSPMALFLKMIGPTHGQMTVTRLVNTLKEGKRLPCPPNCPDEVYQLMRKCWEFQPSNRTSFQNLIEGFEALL
Sequence of isolated recombinant JAK2 kinase domain (O60674 849-1124): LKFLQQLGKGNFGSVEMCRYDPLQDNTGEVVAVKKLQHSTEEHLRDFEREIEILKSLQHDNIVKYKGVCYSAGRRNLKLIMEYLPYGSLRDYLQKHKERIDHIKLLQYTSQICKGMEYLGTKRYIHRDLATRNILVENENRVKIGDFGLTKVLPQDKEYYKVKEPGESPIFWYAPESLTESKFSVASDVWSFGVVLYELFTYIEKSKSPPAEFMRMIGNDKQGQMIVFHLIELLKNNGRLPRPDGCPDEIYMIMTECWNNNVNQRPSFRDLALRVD

On to `CC1(CN2CCN(C(=O)Cn3cc(NC(=O)c4cnn5cccnc45)c(-c4cc(Cl)ccc4OC(F)F)n3)CC2)COC1` [Example 318, N-[3-[5-chloro-2-(difluoromethoxy)phenyl]-1-(2-[4-[(3-methyloxetan-3-yl)methyl]piperazin-1-yl]-2-oxoethyl)-1H-pyrazol-4-yl]pyrazolo[1,5-a]pyrimidine-3-carboxamide], for which the EC50 in assay [1] came out at 0.0283 µM. In addition, the Ki in assay [2] amounted to 1.11 nM; in assay [3] (setting [4]), 0.56 nM.

Turning to `CCCN1CCN(C(=O)Cn2cc(NC(=O)c3cnn4cccnc34)c(-c3cc(Cl)ccc3OC(F)F)n2)CC1` [Example 319, N-[3-[5-chloro-2-(difluoromethoxy)phenyl]-1-[2-oxo-2-(4-propylpiperazin-1-yl)ethyl]-1H-pyrazol-4-yl]pyrazolo[1,5-a]pyrimidine-3-carboxamide], in assay [1], the EC50 amounted to 0.0577 µM. Further, the Ki in assay [2] was determined as 0.86 nM; in assay [3] (setting [4]), 0.5 nM.

As to `O=C(Nc1cn(CC(=O)N2CCN(Cc3ccccc3)CC2)nc1-c1cc(Cl)ccc1OC(F)F)c1cnn2cccnc12` [Example 320, N-[1-[2-(4-benzylpiperazin-1-yl)-2-oxoethyl]-3-[5-chloro-2-(difluoromethoxy)phenyl]-1H-pyrazol-4-yl]pyrazolo[1,5-a]pyrimidine-3-carboxamide], in assay [1], the EC50 was determined as 0.0473 µM. Besides, the inhibition constant Ki in assay [2] worked out at 0.6 nM; in assay [3] (setting [4]), 0.31 nM.

As for `O=C(Nc1cn(CC(=O)N2CCN(CCN3CCOCC3)CC2)nc1-c1cc(Cl)ccc1OC(F)F)c1cnn2cccnc12` [Example 321, N-[3-[5-chloro-2-(difluoromethoxy)phenyl]-1-(2-[4-[2-(morpholin-4-yl)ethyl]piperazin-1-yl]-2-oxoethyl)-1H-pyrazol-4-yl]pyrazolo[1,5-a]pyrimidine-3-carboxamide], the EC50 in assay [1] came out at 0.0133 µM. The values for the Ki in assay [2] and in assay [3] (setting [4]) were 0.9 nM and 0.4 nM, respectively.

As for `COC(=O)CN1CCN(C(=O)Cn2cc(NC(=O)c3cnn4cccnc34)c(-c3cc(Cl)ccc3OC(F)F)n2)CC1` [Example 322, methyl 2-[4-(2-[3-[5-chloro-2-(difluoromethoxy)phenyl]-4-[pyrazolo[1,5-a]pyrimidine-3-amido]-1H-pyrazol-1-yl]acetyl)piperazin-1-yl]acetate], the EC50 in assay [1] turned out to be 0.0411 µM. Further, the Ki in assay [2] turned out to be 0.8 nM; in assay [3] (setting [4]), 0.31 nM.

With `O=C1CCC(Cn2cc(NC(=O)c3cnn4cccnc34)c(-c3cc(Cl)ccc3OC(F)F)n2)O1` (stereo not drawn) [Example 323], the concentration for a half-maximal effect (EC50) in assay [1] stood at 0.0209 µM. The Ki in assay [2] worked out at 0.33 nM; in assay [3] (setting [4]), 0.68 nM.

For the compound `O=C(Nc1cn(CC(=O)N2CCNCC2)nc1-c1cc(Cl)ccc1OC(F)F)c1cnn2cccnc12` [Example 324, N-[3-[5-chloro-2-(difluoromethoxy)phenyl]-1-[2-oxo-2-(piperazin-1-yl)ethyl]-1H-pyrazol-4-yl]pyrazolo[1,5-a]pyrimidine-3-carboxamide], in assay [1], the EC50 is 0.0566 µM. Moreover, the Ki in assay [2] came out at 1.61 nM; in assay [3] (setting [4]), 0.95 nM.

In the case of `CN(C)C(=O)CN1CCN(C(=O)Cn2cc(NC(=O)c3cnn4cccnc34)c(-c3cc(Cl)ccc3OC(F)F)n2)CC1` [Example 325, N-[3-[5-chloro-2-(difluoromethoxy)phenyl]-1-(2-[4-[(dimethylcarbamoyl)methyl]piperazin-1-yl]-2-oxoethyl)-1H-pyrazol-4-yl]pyrazolo[1,5-a]pyrimidine-3-carboxamide], the EC50 in assay [1] turned out to be 0.0651 µM. In addition, the Ki in assay [2] was 1.03 nM; in assay [3] (setting [4]) it was 0.41 nM.

`O=C(Nc1cn(CCNCc2ccccc2O)nc1-c1cc(Cl)ccc1OC(F)F)c1cnn2cccnc12` [Example 326, N-[3-[5-chloro-2-(difluoromethoxy)phenyl]-1-(2-[[(2-hydroxyphenyl)methyl]amino]ethyl)-1H-pyrazol-4-yl]pyrazolo[1,5-a]pyrimidine-3-carboxamide]: the EC50 in assay [1] worked out at 0.007 µM. Further, the Ki in assay [2] is 0.28 nM; in assay [3] (setting [4]), 0.21 nM.

Consider `O=C(Nc1cn(CCNCc2cccc(O)c2)nc1-c1cc(Cl)ccc1OC(F)F)c1cnn2cccnc12` [Example 327, N-[3-[5-chloro-2-(difluoromethoxy)phenyl]-1-(2-[[(3-hydroxyphenyl)methyl]amino]ethyl)-1H-pyrazol-4-yl]pyrazolo[1,5-a]pyrimidine-3-carboxamide], for which, in assay [1], the EC50 worked out at 0.0077 µM. For the same compound, the Ki amounted to 0.2 nM in assay [2] and 0.25 nM in assay [3] (setting [4]).

Take `O=C(Nc1cn(CCNCc2ccc(O)cc2)nc1-c1cc(Cl)ccc1OC(F)F)c1cnn2cccnc12` [Example 328, N-[3-[5-chloro-2-(difluoromethoxy)phenyl]-1-(2-[[(4-hydroxyphenyl)methyl]amino]ethyl)-1H-pyrazol-4-yl]pyrazolo[1,5-a]pyrimidine-3-carboxamide]: in assay [1], the EC50 is 0.0102 µM. Further, the Ki turned out to be 0.23 nM in assay [2] and 0.21 nM in assay [3] (setting [4]).

With `COC(=O)CNC1CCN(C(=O)Cn2cc(NC(=O)c3cnn4cccnc34)c(-c3cc(Cl)ccc3OC(F)F)n2)CC1` [Example 329, methyl 2-[[1-(2-[3-[5-chloro-2-(difluoromethoxy)phenyl]-4-[pyrazolo[1,5-a]pyrimidine-3-amido]-1H-pyrazol-1-yl]acetyl)piperidin-4-yl]amino]acetate formate], in assay [1], the EC50 was found to be 0.0115 µM. In addition, the Ki came to 0.76 nM in assay [2] and 0.3 nM in assay [3].

Take `COC(=O)C1CCN(CCN2CCN(C(=O)Cn3cc(NC(=O)c4cnn5cccnc45)c(-c4cc(Cl)ccc4OC(F)F)n3)CC2)CC1` [Example 333, methyl1-[2-[4-(2-[3-[5-chloro-2-(difluoromethoxy)phenyl]-4-[pyrazolo[1,5-a]pyrimidine-3-amido]-1H-pyrazol-1-yl]acetyl)piperazin-1-yl]ethyl]piperidine-4-carboxylate]: the EC50 in assay [1] worked out at 0.0065 µM. In addition, the figures for the Ki in assay [2] and in assay [3] (setting [4]) were 1.96 nM and 0.69 nM, respectively.

As to `CCOC(=O)C1CCN(CCN2CCN(C(=O)Cn3cc(NC(=O)c4cnn5cccnc45)c(-c4cc(Cl)ccc4OC(F)F)n3)CC2)CC1` [Example 334, ethyl 1-[2-[4-(2-[3-[5-chloro-2-(difluoromethoxy)phenyl]-4-[pyrazolo[1,5-a]pyrimidine-3-amido]-1H-pyrazol-1-yl]acetyl)piperazin-1-yl]ethyl]piperidine-4-carboxylate], in assay [1], the EC50 was 0.0061 µM. Further, the Ki in assay [2] is 1.81 nM; in assay [3] (setting [4]), 0.69 nM.

Consider `COC(=O)C1(C)CCN(CCN2CCN(C(=O)Cn3cc(NC(=O)c4cnn5cccnc45)c(-c4cc(Cl)ccc4OC(F)F)n3)CC2)CC1` [Example 335, methyl 1-[2-[4-(2-[3-[5-chloro-2-(difluoromethoxy)phenyl]-4-[pyrazolo[1,5-a]pyrimidine-3-amido]-1H-pyrazol-1-yl]acetyl)piperazin-1-yl]ethyl]-4-methylpiperidine-4-carboxylate formate], for which the EC50 in assay [1] was determined as 0.0121 µM. Further, the Ki in assay [2] worked out at 2.22 nM; in assay [3] (setting [4]) it was 0.84 nM.

On to `O=C(Nc1cn(CC(=O)N2CCC(C(=O)OCCN3CCOCC3)CC2)nc1-c1cc(Cl)ccc1OC(F)F)c1cnn2cccnc12` [Example 336, 2-(morpholin-4-yl)ethyl 1-(2-[3-[5-chloro-2-(difluoromethoxy)phenyl]-4-[pyrazolo[1,5-a]pyrimidine-3-amido]-1H-pyrazol-1-yl]acetyl)piperidine-4-carboxylate], for which the EC50 in assay [1] came to 0.0145 µM. For the same compound, the values for the Ki in assay [2] and in assay [3] (setting [4]) were 1.05 nM and 0.49 nM, respectively.

In the case of `CCOC(=O)C1(C)CCN(CCN2CCN(C(=O)Cn3cc(NC(=O)c4cnn5cccnc45)c(-c4cc(Cl)ccc4OC(F)F)n3)CC2)CC1` [Example 337, ethyl 1-[2-[4-(2-[3-[5-chloro-2-(difluoromethoxy)phenyl]-4-[pyrazolo[1,5-a]pyrimidine-3-amido]-1H-pyrazol-1-yl]acetyl)piperazin-1-yl]ethyl]-4-methylpiperidine-4-carboxylate formate], the EC50 in assay [1] is 0.0232 µM. In addition, the values for the Ki in assay [2] and in assay [3] (setting [4]) were 2.52 nM and 0.83 nM, respectively.

As to `CC1(C(=O)OCCN2CCOCC2)CCN(C(=O)Cn2cc(NC(=O)c3cnn4cccnc34)c(-c3cc(Cl)ccc3OC(F)F)n2)CC1` [Example 339, 2-(morpholin-4-yl)ethyl1-(2-[3-[5-chloro-2-(difluoromethoxy)phenyl]-4-[pyrazolo[1,5-a]pyrimidine-3-amido]-1H-pyrazol-1-yl]acetyl)-4-methylpiperidine-4-carboxylate], the EC50 in assay [1] was 0.0094 µM. The Ki in assay [2] was found to be 1.01 nM; in assay [3] (setting [4]) it was 0.41 nM.

These data come from patent US9346815B2, “5-chloro-2-difluoromethoxyphenyl pyrazolopyrimidine compounds, compositions and methods of use thereof” (Genentech, Inc., priority 2014, dated 2016).
